GI50 and TGI data for 14 molecules are collected here from PubChem BioAssay (NCI).

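A five-concentration, 48-hour dose response in 96-well plates underlies each endpoint, interpolated linearly between surrounding concentrations. GI50: concentration for 50% inhibition of growth. Definition used: TGI = concentration required for complete inhibition of growth.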 Where only a bound is given, the exact number is not on record here.

Some test systems named below: BT-549 breast; T-47D breast; HS 578T breast; MCF7 breast; PC-3 prostate; 786-0 renal; MDA-N; SR leukemia; SNB-75 CNS; DMS 273 small cell lung; LXFL 529 NSCLC; SNB-78 CNS.
Common to all, as to assay: NCI anticancer screen, dose series, 48 h

For the molecule `O=C(CC1(O)C(=O)Nc2ccc(Br)cc21)c1ccc(C(=O)NCC2CCC3(CC2)OOC2(CCCCC2)OO3)cc1` (centres undefined), the GI50 with BT-549 breast is 7.28 µM; in the assay on T-47D breast it was 2.69 µM; in the assay on HS 578T breast, 9.26 µM; with MCF7 breast, 3.05 µM; with PC-3 prostate, 2.64 µM. Further, the TGI with BT-549 breast is 32.7 µM; in the assay with T-47D breast it was 24.4 µM; in the assay with HS 578T breast, greater than 100 µM; in the assay with MCF7 breast, 26.5 µM; in the assay on PC-3 prostate, 22.3 µM.

With `Cc1ncc(CO)c(CN)c1O`, the TGI in the assay on BT-549 breast, in the assay with 786-0 renal, with T-47D breast, with HS 578T breast, in the assay with MCF7 breast and in the assay on MDA-N was greater than 100 µM throughout. This molecule showed a TGI with PC-3 prostate greater than 100 µM.

Consider `CC[C@H](Nc1nc(N)nc(N)c1Cl)c1nc2cccc(NCc3ccc(C(=O)NO)cc3)c2c(=O)n1-c1ccccc1`, for which the GI50 in the assay on BT-549 breast was 2.13 µM; with T-47D breast it was 2.15 µM; with HS 578T breast it was 2.62 µM; with MCF7 breast, 2.25 µM; with SR leukemia it was 0.579 µM; in the assay on PC-3 prostate it was 1.53 µM. For the same molecule, the TGI was 5.69 µM with BT-549 breast; 10.7 µM with T-47D breast; 10.9 µM in the assay on HS 578T breast; 7.2 µM in the assay with MCF7 breast; greater than 100 µM in the assay on SR leukemia; 3.7 µM in the assay with PC-3 prostate.

Regarding `c1ccc2c[n+](CCCCCCCCCC[n+]3ccc4ccccc4c3)ccc2c1`, the TGI in the assay with BT-549 breast, in the assay on 786-0 renal, with T-47D breast, with HS 578T breast, with SNB-75 CNS and with MCF7 breast was greater than 10 µM throughout. Besides, the TGI with SR leukemia, in the assay on MDA-N and in the assay with PC-3 prostate was greater than 10 µM each time.

On to `CN(C)c1ccc2nc3c(C(=O)O)cc(=O)c(O)c-3oc2c1`, for which the TGI in the assay with BT-549 breast is 42.8 µM; in the assay with 786-0 renal, 82.7 µM; in the assay with T-47D breast, 47.4 µM; with HS 578T breast, greater than 100 µM; with SNB-75 CNS it was 60 µM; in the assay on MCF7 breast, 56.5 µM. Further, the TGI with SR leukemia was 50.1 µM; in the assay on MDA-N, 55.5 µM; with PC-3 prostate, greater than 100 µM.

For the molecule `COc1cc2c(cc1OC)C(Cl)C(c1ccc(Cl)cc1)=C2Cl` (centres undefined), the TGI with DMS 273 small cell lung amounted to 41.6 µM; in the assay with LXFL 529 NSCLC, 17.5 µM; with SNB-78 CNS it was 58.5 µM; in the assay on SNB-75 CNS, 36.2 µM.

As to `CC(C)CNc1nc(N)[nH]c(=O)c1NC=O`, the TGI with BT-549 breast, in the assay with 786-0 renal, in the assay with T-47D breast, in the assay with HS 578T breast, in the assay with SNB-75 CNS and with MCF7 breast was greater than 100 µM in each case. Also, the TGI in the assay with MDA-N and in the assay on PC-3 prostate was greater than 100 µM throughout.

`O=C(O)c1ccccn1`: the TGI in the assay with BT-549 breast, with 786-0 renal, in the assay on T-47D breast, in the assay on HS 578T breast, in the assay with SNB-75 CNS and with MCF7 breast was greater than 100 µM throughout. Besides, the TGI with SR leukemia, in the assay with MDA-N and in the assay on PC-3 prostate was greater than 100 µM in each case.

For the molecule `NCS(=O)(=O)O`, the TGI in the assay with BT-549 breast, in the assay with 786-0 renal, with T-47D breast, in the assay on HS 578T breast, in the assay with SNB-75 CNS and with MCF7 breast was greater than 100 µM throughout. Also, the TGI in the assay with MDA-N and in the assay on PC-3 prostate was greater than 100 µM in each case.

Take `N=C(N)c1ccc(-c2ccc(-c3ccc(Cl)cn3)s2)cc1`: in the assay with HS 578T breast, the GI50 is 2.05 µM and the TGI was 5.35 µM. In the assay on PC-3 prostate, the GI50 was 1.65 µM and the TGI was determined as 3.17 µM.

For the molecule `COc1cc2ccc1-c1cc(ccc1O)CC1c3cc4c(cc3CCN1C)Oc1c(OC)cc3c(c1O4)C(C2)N(C)CC3` (centres undefined), the TGI in the assay with 786-0 renal came to 3.15 µM; in the assay with DMS 273 small cell lung, 3.27 µM; in the assay on LXFL 529 NSCLC it was 3.23 µM; in the assay with SNB-78 CNS, 5.23 µM; with SNB-75 CNS, 3.52 µM; in the assay with SR leukemia, 4 µM.

`CN(C)CCNC(=O)c1cccc2nc3c4ccccc4c4ccccc4c3nc12`: the TGI is 6.25 µM in the assay on BT-549 breast; greater than 100 µM with DMS 273 small cell lung; 34.1 µM with T-47D breast; 10.1 µM with LXFL 529 NSCLC; 37.6 µM in the assay with SNB-78 CNS; 8.85 µM in the assay on SNB-75 CNS. Further, the TGI with MCF7 breast was determined as 3.47 µM; in the assay with SR leukemia, 13 µM; in the assay with MDA-N, 3.06 µM; in the assay on PC-3 prostate it was 3.05 µM.

`CCOC(=O)c1c2c(c(O)c3ccccc3c(O)n(-c3ccc(C)cc3)c1C)C(=O)C=CC2=O`: the TGI amounted to 71.2 µM in the assay on BT-549 breast; 33.5 µM in the assay on 786-0 renal; 39.4 µM with T-47D breast; 66 µM in the assay on HS 578T breast; 43.6 µM in the assay with SNB-75 CNS; 55.7 µM in the assay with MCF7 breast. In the assay on PC-3 prostate, the TGI is greater than 100 µM.

For `C[C@@H]1CC[C@H]2C(COC/C=C/COCC3=C(C(F)(F)F)O[C@@H]4O[C@@]5(C)CC[C@H]6[C@H](C)CC[C@@H]3[C@@]46OO5)=C(C(F)(F)F)O[C@@H]3O[C@@]4(C)CC[C@@H]1[C@]32OO4`, the GI50 in the assay with BT-549 breast is 0.0644 µM; in the assay with HS 578T breast, 0.0429 µM; in the assay on SNB-75 CNS it was 12.7 µM; with MCF7 breast, 0.028 µM; in the assay on PC-3 prostate, less than 0.01 µM. The TGI was greater than 100 µM with BT-549 breast; greater than 100 µM with 786-0 renal; greater than 100 µM in the assay on T-47D breast; greater than 100 µM with HS 578T breast; greater than 100 µM in the assay on SNB-75 CNS; greater than 58.3 µM with MCF7 breast.
